Assay results: patent publication US20170087165A1, “METHODS FOR REDUCING THE OCCURRENCE OF PRETERM DELIVERY AND OTHER PREGNANCY-RELATED CONDITIONS” (Lumara Health IP, Ltd., priority 2009, published 2017)
Values joined by “and” are separate entries in the source; they are usually repeats but may differ in a detail not shown here. Equal values may be shown once.

Experiments:
[1] = test system: pregnant women having a documented history of spontaneous preterm delivery; settings: cited from earlier work
[2] = test system: women who smoked during pregnancy; test: Analysis of the Example 1 trial by smoking status during pregnancy; format: in vivo, human
Protocol: (§1) In a double-blind, placebo-controlled trial, 463 pregnant women having a documented history of spontaneous preterm delivery received weekly injections of 250 mg […] caproate (17-HPC) or an inert castor oil placebo beginning at 16 to 20weeks of gestation and continuing until delivery or 36 weeks of gestation, whichever occurred first. […] A 2:1 ratio was used for the assignment of women to the 17-HPC or placebo group, since those in the placebo group would be subjected to painful injections on a weekly basis with no possibility of direct benefit. Thus, there were 310 women in the 17-HPC group and 153 women in the placebo group. The baseline characteristics of the women in the two groups were similar in terms of the mean duration of gestation of the qualifying delivery, the mean duration of gestation at the time of randomization, race or ethnic group, marital status, body mass index (BMI), educational level, smoking status, and substance use during pregnancy. The women in the placebo group had had more previous preterm deliveries (mean of 1.6 vs. 1.4 in the 17-HPC group). 91.5% of the study participants were compliant with all of their injections, noncompliance being defined as a gap of 10 days or more between any two injections, and there was no difference in the rate of compliance between the placebo group and the 17-HPC group. Preterm delivery was defined as delivery at less than 37 completed weeks (259 days) of gestation, calculated on the basis of the date of the last menstrual period and ultrasonography results.
(§2) In the clinical trial described in Example 1, 22.6% ([…]) of subjects in the 17-HPC group and 19.6% (30/153) of subjects in the placebo group smoked during pregnancy. […] Thus, it was apparent in the data that smoking increased the risk f or preterm delivery, measured either as delivery prior to 37 weeks of gestation.

[3] = as above; format: in vivo, human; settings: women who smoked during pregnancy; 95% CI 0.0830, 0.5297
Protocol: as §1, §2

[4] = test system: children of the mothers who participated in the trial; settings: cited from earlier work

## CCCCCC(=O)O[C@]1(C(C)=O)CC[C@H]2[C@@H]3CCC4=CC(=O)CC[C@]4(C)[C@H]3CC[C@@]21C [17-HPC, 17alpha-hydroxyprogesterone caproate]
[1]; 250 mg weekly injection from 16-20 weeks of gestation until delivery or 36 weeks, 111/306, placebo 54.9%
  incidence of preterm delivery at less than 37 weeks of gestation: 36.3%
[1]; 250 mg weekly, 35/306, P=0.02
  incidence of delivery at less than 32 weeks: 11.4%
[1]; 250 mg weekly, 63/306, placebo 30.7%, P=0.02
  incidence of delivery at less than 35 weeks of gestation: 20.6%
[1]; infants of treated women, 0/305, placebo 2.6%, P=0.01
  incidence of necrotizing enterocolitis: 0%
[1]; infants of treated women, 4/305, placebo 5.2%
  incidence of intraventricular hemorrhage of any grade: 1.3%
[1]; infants of treated women, 26/301, placebo 13.9%, P=0.08, non-significant
  incidence of birth weight of less than 1500 g: 8.6%
[1]; infants of treated women, 45/303, placebo 23.8%
  incidence of need for supplemental oxygen: 14.9%
[1]; infants of treated women, 82/301, placebo 41.1%, P=0.003
  incidence of birth weight of less than 2500 g: 27.2%
[1]; versus placebo group
  rate of intraventricular hemorrhage of grades 3 to 4: no significant difference between groups
  rates of infant death, transient tachypnea in the newborn, distress syndrome, bronchopulmonary dysplasia, need for ventilatory support, retinopathy of prematurity, and patent ductus arteriosus: slightly but not significantly lower
[1]; women with similar risk level
  women needed to be treated to prevent one delivery before 32 weeks of gestation: 12 women
[2]; not smoking during pregnancy, 92/240, placebo 51.2% (63/123)
  proportion of deliveries at less than 37 weeks of gestation, subjects who did not smoke during pregnancy: 38.3%
[2]; smoking during pregnancy, 23/70, placebo 70% (21/30)
  proportion of deliveries at less than 37 weeks of gestation, subjects who smoked during pregnancy: 32.9%
[3]
  odds ratio of preterm delivery (<37 weeks) 17-HPC vs placebo: 0.21 and 0.2097
[4]; mean age at follow up 48 months, 194 children in 17-HPC group vs 84 placebo
  health status or physical examination of the children: No significant differences
[4]; mean age at follow up 48 months, versus placebo
  Ages and Stages Questionnaire (development in five areas): no difference
[4]; weekly intramuscular injection to the mother during second and third trimesters
  safety for the fetus: appears to be safe for the fetus
